Measured values reported in publication PMC10791743, “Selective CK1α degraders exert antiproliferative activity against a broad range of human cancer cell lines” (Nature Communications, 2024).
Values joined by “and” are separate entries in the source; they are usually repeats but may differ in a detail not shown here. Identical values can stand only once.

Target: CK1α (Homo sapiens, UniProt P48729+Q96SW2)
Assay: In vivo PD: CK1α protein levels in MOLM-13 xenograft (western blot of human cells from bone marrow)
Design: quantified western blots of isolated human cells from the bone marrow of treated mice; endogenous in cells; host or cells: MOLM-13 xenograft cells from NSG mouse bone marrow, murine cells depleted; species or system NSG mice engrafted with MOLM-13 cells
Conditions: for CK1a quantified western blot signal, group mean (Mean 2): n 3, DMSO mean 0.9882; for CK1a quantified western blot signal, individual animals: relative to DMSO; for CK1α protein level in vivo: 48 h
Description: For the PD experiment, NSG mice engrafted with MOLM-13 cells were treated for 48 h with SJ3149 or DMSO vehicle in 4 groups: vehicle, 50 mg/kg once per day, or vehicle or 50 mg/kg twice per day (Fig. 6). After 48 h, the mice were sacrificed and human cells were isolated from the collected bone marrow and lysed for western blot analysis.
(§1) For the xenograft transplantation study, female NSG mice (NOD.Cg-Prkdc^scid Il2rg^tm1Wjl/SzJ, Strain #005557, The Jackson Laboratory) aged 6–8 weeks were transplanted with 100,000 MOLM-13 cells by tail-vein injection. 10 days post-transplantation, mice were treated with SJ3149 via intraperitoneal injections for the following 2-day dosing schedule: 50 mg/kg (1 dose every 12 h), and 50 mg/kg (1 dose every 24 h) with n = 3 per group. Control groups (n = 3) were treated with DMSO either 1 dose every 24 h or 1 dose every 12 h with equal volume as treatment groups. Mice were euthanized 48 h after the first treatment and bone marrow cells were collected. Murine cells were depleted using the EasySep Mouse/Human Chimera isolation kit ([…] Technologies #19849). NSG mice were housed in microisolation cages and kept under barrier conditions to keep them specific pathogen-free. The lights for NSG mice are on an automated 12-h on, 12-h off light cycle. The mouse room has a separate thermostat and humidistat to control temperature and humidity at the room level. Sex was not considered beyond female mice being most commonly used for cell line-derived xenografts. Ethical approval by the St. Jude Institutional Animal Care and Use Committee.
as §1, with “Female” for “For the xenograft transplantation study, female”

Sequence of CK1α (P48729 whole entry): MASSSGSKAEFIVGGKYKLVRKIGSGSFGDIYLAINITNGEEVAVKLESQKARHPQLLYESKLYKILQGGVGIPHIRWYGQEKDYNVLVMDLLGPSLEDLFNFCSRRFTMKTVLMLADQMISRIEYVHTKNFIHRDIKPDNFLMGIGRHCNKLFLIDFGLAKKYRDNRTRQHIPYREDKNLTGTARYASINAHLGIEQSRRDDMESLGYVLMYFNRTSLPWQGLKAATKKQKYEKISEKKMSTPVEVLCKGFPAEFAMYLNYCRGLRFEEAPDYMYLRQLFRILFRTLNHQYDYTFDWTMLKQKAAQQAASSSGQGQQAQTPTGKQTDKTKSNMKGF
Sequence of CK1α (Q96SW2 whole entry): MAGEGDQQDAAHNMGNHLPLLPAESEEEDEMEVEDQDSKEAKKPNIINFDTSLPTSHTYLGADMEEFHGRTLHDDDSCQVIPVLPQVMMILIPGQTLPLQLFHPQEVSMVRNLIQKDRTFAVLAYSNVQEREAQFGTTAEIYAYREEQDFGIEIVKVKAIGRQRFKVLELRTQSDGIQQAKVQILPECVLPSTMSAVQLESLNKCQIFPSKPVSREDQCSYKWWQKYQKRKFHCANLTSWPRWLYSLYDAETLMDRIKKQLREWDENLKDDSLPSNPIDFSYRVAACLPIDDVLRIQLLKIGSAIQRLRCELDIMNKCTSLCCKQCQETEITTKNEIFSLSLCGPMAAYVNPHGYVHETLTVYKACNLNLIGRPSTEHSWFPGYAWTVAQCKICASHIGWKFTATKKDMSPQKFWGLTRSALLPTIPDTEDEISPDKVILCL
Sequence of CK1α (Q16531 whole entry partner): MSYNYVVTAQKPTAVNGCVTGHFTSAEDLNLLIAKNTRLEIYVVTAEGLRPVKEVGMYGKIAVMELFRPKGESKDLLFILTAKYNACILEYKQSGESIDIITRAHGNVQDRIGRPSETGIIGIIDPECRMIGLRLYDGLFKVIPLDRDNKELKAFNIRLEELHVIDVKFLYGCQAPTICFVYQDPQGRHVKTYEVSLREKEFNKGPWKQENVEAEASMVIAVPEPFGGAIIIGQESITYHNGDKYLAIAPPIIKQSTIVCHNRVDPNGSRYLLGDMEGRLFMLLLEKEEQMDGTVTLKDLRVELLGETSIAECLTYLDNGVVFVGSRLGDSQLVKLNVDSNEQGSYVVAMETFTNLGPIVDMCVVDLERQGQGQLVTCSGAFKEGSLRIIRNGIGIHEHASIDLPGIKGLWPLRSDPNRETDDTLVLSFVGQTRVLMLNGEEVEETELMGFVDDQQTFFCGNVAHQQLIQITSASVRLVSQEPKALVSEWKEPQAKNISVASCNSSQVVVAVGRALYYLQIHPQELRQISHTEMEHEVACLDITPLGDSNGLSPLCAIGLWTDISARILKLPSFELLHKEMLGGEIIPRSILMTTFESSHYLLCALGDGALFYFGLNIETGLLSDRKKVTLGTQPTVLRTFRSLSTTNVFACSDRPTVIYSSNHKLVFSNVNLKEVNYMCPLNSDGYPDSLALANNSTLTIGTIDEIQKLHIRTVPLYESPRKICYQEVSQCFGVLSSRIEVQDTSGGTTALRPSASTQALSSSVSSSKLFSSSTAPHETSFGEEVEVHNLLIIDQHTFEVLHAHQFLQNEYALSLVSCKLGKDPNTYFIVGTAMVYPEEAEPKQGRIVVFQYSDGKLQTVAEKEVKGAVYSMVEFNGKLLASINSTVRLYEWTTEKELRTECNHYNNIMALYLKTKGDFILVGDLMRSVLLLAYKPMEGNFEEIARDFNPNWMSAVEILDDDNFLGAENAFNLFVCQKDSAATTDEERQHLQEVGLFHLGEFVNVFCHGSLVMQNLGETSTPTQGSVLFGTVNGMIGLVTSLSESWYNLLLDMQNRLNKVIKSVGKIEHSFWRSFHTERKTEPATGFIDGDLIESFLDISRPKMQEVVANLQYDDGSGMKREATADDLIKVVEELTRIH

In the case of O=C1CCC(N2Cc3cc(Nc4noc5ccccc45)ccc3C2=O)C(=O)N1 (centres unmarked) [SJ3149], the “CK1a quantified western blot signal, group mean (Mean 2)” value (50 mg/kg 1x/day) was 0.3507, the “CK1a quantified western blot signal, individual animals” value (50 mg/kg 1x/day) was 0.2018 and 0.4461 and 0.4041 and the “CK1a quantified western blot signal, group mean (Mean 2)” value (50 mg/kg 2x/day) was 0.212. For the same compound, the “CK1a quantified western blot signal, individual animals” value (50 mg/kg 2x/day) was 0.07248 and 0.5016 and 0.06191, the “CK1a quantified western blot signal, group mean (Mean 2)” value (100 mg/kg 1x/day) was 0.4998 and the “CK1a quantified western blot signal, individual animals” value (100 mg/kg 1x/day) was 0.1574 and 0.8298 and 0.5123. The “CK1α protein level in vivo” value (IP 50 mg/kg once per day) was “significant degradation of CK1α” and the “CK1α protein level in vivo” value (IP 50 mg/kg twice per day) was “significant degradation of CK1α”.
